# Reference: BindingDB's records for doi:10.1016/0167-0115(94)90537-1 (Universit&Eacute, 1994)
# Square brackets hold non-standard residues; d marks the D form. Peptide text beside a SMILES is read from it. ξ: configuration not given here. Ile(3ξ) = CCC(C)[C@H](N)C(=O)O
# Biological target: T1, VIP peptides (Rattus norvegicus, UniProt P01283)
# T1 sequence (P01283 whole entry): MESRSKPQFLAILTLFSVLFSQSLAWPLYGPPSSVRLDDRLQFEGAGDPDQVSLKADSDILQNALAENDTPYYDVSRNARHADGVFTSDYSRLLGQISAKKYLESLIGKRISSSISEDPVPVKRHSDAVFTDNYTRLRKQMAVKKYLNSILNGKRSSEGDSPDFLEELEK
row,SMILES,Ki [nM]
1,CC[C@H](C)[C@H](NC(=O)[C@H](CO)NC(=O)[C@H](CC(N)=O)NC(=O)[C@H](CC(C)C)NC(=O)[C@H](Cc1ccc(O)cc1)NC(=O)[C@H](CCCCN)NC(=O)[C@H](CCCCN)NC(=O)[C@@H](NC(=O)[C@H](C)NC(=O)[C@H](CCSC)NC(=O)[C@H](CCC(N)=O)NC(=O)[C@H](CCCCN)NC(=O)[C@H](CCCN=C(N)N)NC(=O)[C@H](CC(C)C)NC(=O)[C@H](CCCN=C(N)N)NC(=O)[C@@H](NC(=O)[C@H](Cc1ccc(O)cc1)NC(=O)[C@H](CC(N)=O)NC(=O)[C@H](CC(=O)O)NC(=O)[C@@H](NC(=O)[C@H](Cc1ccccc1)NC(=O)[C@@H](NC(=O)[C@H](C)NC(=O)[C@H](CC(=O)O)NC(=O)[C@H](CO)NC(=O)[C@H](N)Cc1cnc[nH]1)C(C)C)[C@@H](C)O)[C@@H](C)O)C(C)C)C(=O)N[C@@H](CC(C)C)C(=O)N[C@@H](CC(N)=O)C(N)=O [VIP [D-His1]],200
2,[C][C][C]([C])[C@H]([N]C(=O)[C][N]C(=O)[C@H]([C][C]C([O])=O)[N]C(=O)[C@@H]([N])[C][O])C(=O)[N][C@@H]([C]c1ccccc1)C(=O)[N][C@H](C(=O)[N][C@@H]([C]C([O])=O)C(=O)[N][C@@H]([C][O])C(=O)[N][C@@H]([C]c1ccc([O])cc1)C(=O)[N][C@@H]([C][O])C(=O)[N][C@@H]([C][C][C]N=C([N])[N])C(=O)[N][C@@H]([C]c1ccc([O])cc1)C(=O)[N][C@@H]([C][C][C]N=C([N])[N])C(=O)[N][C@@H]([C][C][C][C][N])C(=O)[N][C@@H]([C][C]C([N])=O)C(=O)[N][C@@H]([C][C]S[C])C(=O)[N][C@@H]([C])C(=O)[N][C@@H]([C]([C])[C])C(=O)[N][C@@H]([C][C][C][C][N])C(=O)[N][C@@H]([C][C][C][C][N])C(=O)[N][C@@H]([C]c1ccc([O])cc1)C(=O)[N][C@@H]([C][C]([C])[C])C(=O)[N][C@@H]([C])C(=O)[N][C@@H]([C])C(=O)[N][C@@H]([C]([C])[C])C(=O)[N][C@@H]([C][C]([C])[C])C([N])=O)[C@@H]([C])[O] [PACAP(2-27)],30
3,CC[C@H](C)[C@H](NC(=O)[C@H](CO)NC(=O)[C@H](CC(N)=O)NC(=O)[C@H](CC(C)C)NC(=O)[C@H](Cc1ccc(O)cc1)NC(=O)[C@H](CCCCN)NC(=O)[C@H](CCCCN)NC(=O)[C@@H](NC(=O)[C@H](C)NC(=O)[C@H](CCSC)NC(=O)[C@H](CCC(N)=O)NC(=O)[C@H](CCCCN)NC(=O)[C@H](CCCN=C(N)N)NC(=O)[C@H](CC(C)C)NC(=O)[C@H](CCCN=C(N)N)NC(=O)[C@@H](NC(=O)[C@H](Cc1ccc(O)cc1)NC(=O)[C@H](CC(N)=O)NC(=O)[C@H](CC(=O)O)NC(=O)[C@@H](NC(=O)[C@H](Cc1ccccc1)NC(=O)[C@@H](NC(=O)[C@H](C)NC(=O)[C@H](CC(=O)O)NC(=O)[C@@H](N)CO)C(C)C)[C@@H](C)O)[C@@H](C)O)C(C)C)C(=O)N[C@@H](CC(C)C)C(=O)N[C@@H](CC(N)=O)C(N)=O [VIP(2-28)] (H-SDAVFTDNYTRLRKQMAVKKYLNSILN-NH2),200
4,CC[C@H](C)[C@H](NC(=O)CNC(=O)[C@H](CC(=O)O)NC(=O)[C@H](CO)NC(=O)[C@@H](N)Cc1cnc[nH]1)C(=O)N[C@@H](Cc1ccccc1)C(=O)N[C@H](C(=O)N[C@@H](CC(=O)O)C(=O)N[C@@H](CO)C(=O)N[C@@H](Cc1ccc(O)cc1)C(=O)N[C@@H](CO)C(=O)N[C@@H](CCCNC(=N)N)C(=O)N[C@@H](Cc1ccc(O)cc1)C(=O)N[C@@H](CCCNC(=N)N)C(=O)N[C@@H](CCCCN)C(=O)N[C@@H](CCC(N)=O)C(=O)N[C@@H](CCSC)C(=O)N[C@@H](C)C(=O)N[C@H](C(=O)N[C@@H](CCCCN)C(=O)N[C@@H](CCCCN)C(=O)N[C@@H](Cc1ccc(O)cc1)C(=O)N[C@@H](CC(C)C)C(=O)N[C@@H](C)C(=O)N[C@@H](C)C(=O)N[C@H](C(=O)N[C@@H](CC(C)C)C(=O)NCC(=O)N[C@@H](CCCCN)C(=O)N[C@@H](CCCNC(=N)N)C(=O)N[C@@H](Cc1ccc(O)cc1)C(=O)N[C@@H](CCCCN)C(=O)N[C@@H](CCC(N)=O)C(=O)N[C@@H](CCCNC(=N)N)C(=O)N[C@H](C(=O)N[C@@H](CCCCN)C(=O)N[C@@H](CC(N)=O)C(=O)N[C@@H](CCCCN)C(N)=O)C(C)C)C(C)C)C(C)C)[C@@H](C)O [PACAP],2
5,CC[C@H](C)[C@H](NC(=O)[C@H](CO)NC(=O)[C@H](CC(N)=O)NC(=O)[C@H](CC(C)C)NC(=O)[C@H](Cc1ccc(O)cc1)NC(=O)[C@H](CCCCN)NC(=O)[C@H](CCCCN)NC(=O)[C@@H](NC(=O)[C@H](C)NC(=O)[C@H](CCSC)NC(=O)[C@H](CCC(N)=O)NC(=O)[C@H](CCCCN)NC(=O)[C@H](CCCN=C(N)N)NC(=O)[C@H](CC(C)C)NC(=O)[C@H](CCCN=C(N)N)NC(=O)[C@@H](NC(=O)[C@H](Cc1ccc(O)cc1)NC(=O)[C@H](CC(N)=O)NC(=O)[C@H](CC(=O)O)NC(=O)[C@@H](NC(=O)[C@H](Cc1ccccc1)NC(=O)[C@@H](NC(=O)[C@H](C)NC(=O)[C@@H](N)CC(=O)O)C(C)C)[C@@H](C)O)[C@@H](C)O)C(C)C)C(=O)N[C@@H](CC(C)C)C(=O)N[C@@H](CC(N)=O)C(N)=O [VIP(3-28)] (H-DAVFTDNYTRLRKQMAVKKYLNSILN-NH2),3000
6,CCC(C)[C@H](NC(=O)CNC(=O)[C@@H](N)CC(=O)O)C(=O)N[C@@H](Cc1ccccc1)C(=O)N[C@H](C(=O)N[C@@H](CC(=O)O)C(=O)N[C@@H](CO)C(=O)N[C@@H](Cc1ccc(O)cc1)C(=O)N[C@@H](CO)C(=O)N[C@@H](CCCN=C(N)N)C(=O)N[C@@H](Cc1ccc(O)cc1)C(=O)N[C@@H](CCCN=C(N)N)C(=O)N[C@@H](CCCCN)C(=O)N[C@@H](CCC(N)=O)C(=O)N[C@@H](CCSC)C(=O)N[C@@H](C)C(=O)N[C@H](C(=O)N[C@@H](CCCCN)C(=O)N[C@@H](CCCCN)C(=O)N[C@@H](Cc1ccc(O)cc1)C(=O)N[C@@H](CC(C)C)C(=O)N[C@@H](C)C(=O)N[C@@H](C)C(=O)N[C@H](C(=O)N[C@@H](CC(C)C)C(N)=O)C(C)C)C(C)C)[C@@H](C)O (some centres undefined) [PACAP(3-27)] (H-DG[Ile(3ξ)]FTDSYSRYRKQMAVKKYLAAVL-NH2),2000
7,CC[C@H](C)[C@H](NC(=O)[C@H](CO)NC(=O)[C@H](CC(N)=O)NC(=O)[C@H](CC(C)C)NC(=O)[C@H](Cc1ccc(O)cc1)NC(=O)[C@H](CCCCN)NC(=O)[C@H](CCCCN)NC(=O)[C@@H](NC(=O)[C@H](C)NC(=O)[C@H](CCSC)NC(=O)[C@H](CCC(N)=O)NC(=O)[C@H](CCCCN)NC(=O)[C@H](CCCN=C(N)N)NC(=O)[C@H](CC(C)C)NC(=O)[C@H](CCCN=C(N)N)NC(=O)[C@@H](NC(=O)[C@H](Cc1ccc(O)cc1)NC(=O)[C@H](CC(N)=O)NC(=O)[C@H](CC(=O)O)NC(=O)[C@@H](NC(=O)[C@H](Cc1ccccc1)NC(=O)[C@@H](NC(=O)[C@H](C)NC(=O)[C@H](CC(=O)O)NC(=O)[C@H](CO)NC(=O)[C@H](Cc1cnc[nH]1)NC(C)=O)C(C)C)[C@@H](C)O)[C@@H](C)O)C(C)C)C(=O)N[C@@H](CC(C)C)C(=O)N[C@@H](CC(N)=O)C(N)=O [Acetyl-His1-VIP],15
8,CCC(C)[C@H](NC(=O)CNC(=O)[C@H](CC(=O)O)NC(=O)[C@@H](N)CO)C(=O)N[C@@H](Cc1ccccc1)C(=O)N[C@H](C(=O)N[C@@H](CC(=O)O)C(=O)N[C@@H](CO)C(=O)N[C@@H](Cc1ccc(O)cc1)C(=O)N[C@@H](CO)C(=O)N[C@@H](CCCN=C(N)N)C(=O)N[C@@H](Cc1ccc(O)cc1)C(=O)N[C@@H](CCCN=C(N)N)C(=O)N[C@@H](CCCCN)C(=O)N[C@@H](CCC(N)=O)C(=O)N[C@@H](CCSC)C(=O)N[C@@H](C)C(=O)N[C@H](C(=O)N[C@@H](CCCCN)C(=O)N[C@@H](CCCCN)C(=O)N[C@@H](Cc1ccc(O)cc1)C(=O)N[C@@H](CC(C)C)C(=O)N[C@@H](C)C(=O)N[C@@H](C)C(=O)N[C@H](C(=O)N[C@@H](CC(C)C)C(=O)NCC(=O)N[C@@H](CCCCN)C(=O)N[C@@H](CCCN=C(N)N)C(=O)N[C@@H](Cc1ccc(O)cc1)C(=O)N[C@@H](CCCCN)C(=O)N[C@@H](CCC(N)=O)C(=O)N[C@@H](CCCN=C(N)N)C(=O)N[C@H](C(=O)N[C@@H](CCCCN)C(=O)N[C@@H](CC(N)=O)C(=O)N[C@@H](CCCCN)C(N)=O)C(C)C)C(C)C)C(C)C)[C@@H](C)O (some centres undefined) [PACAP(2-38)] (H-SDG[Ile(3ξ)]FTDSYSRYRKQMAVKKYLAAVLGKRYKQRVKNK-NH2),80
9,CC[C@H](C)[C@H](NC(=O)[C@H](C)NC(=O)[C@H](CC(=O)O)NC(=O)[C@H](CO)NC(=O)[C@@H](N)Cc1cnc[nH]1)C(=O)N[C@@H](Cc1ccccc1)C(=O)N[C@H](C(=O)N[C@@H](CCC(N)=O)C(=O)N[C@@H](CCC(N)=O)C(=O)N[C@@H](Cc1ccc(O)cc1)C(=O)N[C@@H](CO)C(=O)N[C@@H](CCCCN)C(=O)N[C@@H](CC(C)C)C(=O)N[C@@H](CC(C)C)C(=O)N[C@@H](C)C(=O)N[C@@H](CCCCN)C(=O)N[C@@H](CC(C)C)C(=O)N[C@@H](C)C(=O)N[C@@H](CC(C)C)C(=O)N[C@@H](CCC(N)=O)C(=O)N[C@@H](CCCCN)C(=O)N[C@@H](Cc1ccc(O)cc1)C(=O)N[C@@H](CC(C)C)C(=O)N[C@@H](C)C(=O)N[C@@H](CO)C(=O)N[C@H](C(=O)N[C@@H](CC(C)C)C(=O)NCC(=O)N[C@@H](CO)C(=O)N[C@@H](CCCNC(=N)N)C(=O)N[C@H](C(=O)N[C@@H](CO)C(=O)N1CCC[C@H]1C(=O)N1CCC[C@H]1C(=O)N1CCC[C@H]1C(N)=O)[C@@H](C)O)[C@@H](C)CC)[C@@H](C)O [CAS_89468-62-2] (H-HSDAIFTQQYSKLLAKLALQKYLASILGSRTSPPP-NH2),30
